In the kinase profiling compilation of Christmann-Franck et al. (2016):

Experiments:
Assay in all cases: radiometric filter-binding kinase assay, Kinase HotSpot
Details in all cases: compound 0.5 µM; ATP 10 µM
[1] = target: AXL (human) (UniProt P30530)
[2] = target: CAMK2A (human) (UniProt Q9UQM7)
[3] = target: CDK1 CCNA2 (human) (UniProt P06493+P20248)
[4] = target: CDK4 CCND3 (human) (UniProt P30281+P11802)
[5] = target: CDK6 CCND3 (human) (UniProt P30281+Q00534)
[6] = target: CDK9 CCNT1 (human) (UniProt P50750+O60563)
[7] = target: CHEK1 (human) (UniProt O14757)
[8] = target: CSNK1A1 (human) (UniProt P48729)
[9] = target: CSNK2A2 (human) (UniProt P19784)
[10] = target: EPHA8 (human) (UniProt P29322)
[11] = target: ERBB2 (human) (UniProt P04626)
[12] = target: FER (human) (UniProt P16591)
[13] = target: FLT3 (human) (UniProt P36888)
[14] = target: FYN (human) (UniProt P06241)
[15] = target: GRK4 (human) (UniProt P32298)
[16] = target: GRK5 (human) (UniProt P34947)
[17] = target: GRK6 (human) (UniProt P43250)
Chain of GRK6 (human) (P43250 whole entry, looked up): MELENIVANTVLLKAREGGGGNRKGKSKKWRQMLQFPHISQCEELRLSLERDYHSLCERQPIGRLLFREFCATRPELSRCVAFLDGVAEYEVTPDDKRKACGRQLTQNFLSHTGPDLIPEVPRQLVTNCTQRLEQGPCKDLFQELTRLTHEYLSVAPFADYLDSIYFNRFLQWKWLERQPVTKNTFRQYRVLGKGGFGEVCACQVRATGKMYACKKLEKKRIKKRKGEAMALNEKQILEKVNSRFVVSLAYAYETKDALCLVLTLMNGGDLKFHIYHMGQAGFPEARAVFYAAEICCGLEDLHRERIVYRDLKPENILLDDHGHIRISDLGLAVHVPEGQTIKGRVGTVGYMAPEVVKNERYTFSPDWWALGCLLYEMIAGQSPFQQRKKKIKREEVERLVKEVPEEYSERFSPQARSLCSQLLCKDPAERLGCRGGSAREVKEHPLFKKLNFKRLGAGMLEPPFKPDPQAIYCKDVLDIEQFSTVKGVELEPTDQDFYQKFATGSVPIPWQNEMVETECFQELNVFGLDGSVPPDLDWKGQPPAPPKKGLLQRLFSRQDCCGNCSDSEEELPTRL

[18] = target: GSG2 (human) (UniProt Q8TF76)
[19] = target: GSK3B (human) (UniProt P49841)
Chain of GSK3B (human) (P49841 whole entry, looked up): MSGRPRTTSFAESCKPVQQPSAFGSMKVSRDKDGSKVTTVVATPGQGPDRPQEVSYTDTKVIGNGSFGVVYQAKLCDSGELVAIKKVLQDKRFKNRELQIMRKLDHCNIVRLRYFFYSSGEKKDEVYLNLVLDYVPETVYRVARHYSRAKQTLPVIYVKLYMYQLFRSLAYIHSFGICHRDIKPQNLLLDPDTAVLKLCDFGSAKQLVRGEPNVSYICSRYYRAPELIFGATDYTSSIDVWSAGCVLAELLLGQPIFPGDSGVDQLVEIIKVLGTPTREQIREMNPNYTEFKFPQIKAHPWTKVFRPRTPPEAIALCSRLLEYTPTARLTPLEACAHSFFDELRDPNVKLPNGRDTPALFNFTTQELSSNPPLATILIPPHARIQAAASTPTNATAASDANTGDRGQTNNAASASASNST

[20] = target: MAPK11 (human) (UniProt Q15759)
Chain of MAPK11 (human) (Q15759 whole entry, looked up): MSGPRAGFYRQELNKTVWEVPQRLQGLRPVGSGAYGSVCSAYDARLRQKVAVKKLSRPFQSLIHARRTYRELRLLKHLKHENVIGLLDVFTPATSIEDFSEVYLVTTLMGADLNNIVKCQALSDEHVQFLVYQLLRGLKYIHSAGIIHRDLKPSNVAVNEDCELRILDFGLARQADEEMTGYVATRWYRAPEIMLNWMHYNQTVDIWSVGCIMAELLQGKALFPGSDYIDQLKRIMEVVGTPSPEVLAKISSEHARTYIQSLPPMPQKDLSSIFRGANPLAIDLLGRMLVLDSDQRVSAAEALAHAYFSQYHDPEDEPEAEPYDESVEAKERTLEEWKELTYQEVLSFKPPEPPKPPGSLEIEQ

[21] = target: MAPK12 (human) (UniProt P53778)
[22] = target: MAPK13 (human) (UniProt O15264)
Chain of MAPK13 (human) (O15264 whole entry, looked up): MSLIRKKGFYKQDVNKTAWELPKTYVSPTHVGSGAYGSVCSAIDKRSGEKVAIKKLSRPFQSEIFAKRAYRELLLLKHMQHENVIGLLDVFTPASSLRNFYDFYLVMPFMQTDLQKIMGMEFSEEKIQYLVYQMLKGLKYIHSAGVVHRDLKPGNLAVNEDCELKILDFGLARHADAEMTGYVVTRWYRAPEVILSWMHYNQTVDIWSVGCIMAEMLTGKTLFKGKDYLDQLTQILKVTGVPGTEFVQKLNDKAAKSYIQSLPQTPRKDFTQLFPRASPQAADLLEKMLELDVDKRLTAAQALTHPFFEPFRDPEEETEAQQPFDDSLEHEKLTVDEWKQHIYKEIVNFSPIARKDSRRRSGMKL

[23] = target: MAPK14 (human) (UniProt Q16539)
Chain of MAPK14 (human) (Q16539 whole entry, looked up): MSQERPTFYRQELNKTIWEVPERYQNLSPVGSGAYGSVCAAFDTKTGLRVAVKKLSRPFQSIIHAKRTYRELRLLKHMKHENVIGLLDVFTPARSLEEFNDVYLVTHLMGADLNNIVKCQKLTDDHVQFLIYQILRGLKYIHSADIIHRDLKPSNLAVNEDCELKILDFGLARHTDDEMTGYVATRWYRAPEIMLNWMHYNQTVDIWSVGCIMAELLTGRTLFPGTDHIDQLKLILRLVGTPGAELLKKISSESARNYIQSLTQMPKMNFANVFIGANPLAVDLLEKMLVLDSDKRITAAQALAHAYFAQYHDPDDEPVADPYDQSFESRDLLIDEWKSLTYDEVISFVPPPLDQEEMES

[24] = target: MAPK3 (human) (UniProt P27361)
Chain of MAPK3 (human) (P27361 whole entry, looked up): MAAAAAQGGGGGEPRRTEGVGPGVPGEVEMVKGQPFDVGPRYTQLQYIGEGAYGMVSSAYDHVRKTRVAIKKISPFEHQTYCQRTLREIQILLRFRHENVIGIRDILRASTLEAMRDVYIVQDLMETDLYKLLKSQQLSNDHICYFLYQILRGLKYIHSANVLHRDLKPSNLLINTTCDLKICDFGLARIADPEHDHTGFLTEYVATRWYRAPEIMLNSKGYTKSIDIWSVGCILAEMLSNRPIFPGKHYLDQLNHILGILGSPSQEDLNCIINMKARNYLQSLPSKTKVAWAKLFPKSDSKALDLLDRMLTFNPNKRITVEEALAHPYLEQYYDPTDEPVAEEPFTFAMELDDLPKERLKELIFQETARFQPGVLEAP

[25] = target: MAPK9 (human) (UniProt P45984)
Chain of MAPK9 (human) (P45984 whole entry, looked up): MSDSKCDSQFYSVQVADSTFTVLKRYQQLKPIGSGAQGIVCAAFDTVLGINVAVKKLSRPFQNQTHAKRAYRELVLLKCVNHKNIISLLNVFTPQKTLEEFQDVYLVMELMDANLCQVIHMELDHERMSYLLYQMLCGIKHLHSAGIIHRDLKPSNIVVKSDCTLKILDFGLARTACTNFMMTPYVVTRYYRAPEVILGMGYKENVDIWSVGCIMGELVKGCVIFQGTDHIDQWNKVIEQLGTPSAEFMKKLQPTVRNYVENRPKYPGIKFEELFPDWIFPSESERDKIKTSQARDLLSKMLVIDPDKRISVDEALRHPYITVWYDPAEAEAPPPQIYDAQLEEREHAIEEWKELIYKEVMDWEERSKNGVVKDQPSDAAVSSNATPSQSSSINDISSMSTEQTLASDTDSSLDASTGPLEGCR

[26] = target: MARK4 (human) (UniProt Q96L34)
Chain of MARK4 (human) (Q96L34 whole entry, looked up): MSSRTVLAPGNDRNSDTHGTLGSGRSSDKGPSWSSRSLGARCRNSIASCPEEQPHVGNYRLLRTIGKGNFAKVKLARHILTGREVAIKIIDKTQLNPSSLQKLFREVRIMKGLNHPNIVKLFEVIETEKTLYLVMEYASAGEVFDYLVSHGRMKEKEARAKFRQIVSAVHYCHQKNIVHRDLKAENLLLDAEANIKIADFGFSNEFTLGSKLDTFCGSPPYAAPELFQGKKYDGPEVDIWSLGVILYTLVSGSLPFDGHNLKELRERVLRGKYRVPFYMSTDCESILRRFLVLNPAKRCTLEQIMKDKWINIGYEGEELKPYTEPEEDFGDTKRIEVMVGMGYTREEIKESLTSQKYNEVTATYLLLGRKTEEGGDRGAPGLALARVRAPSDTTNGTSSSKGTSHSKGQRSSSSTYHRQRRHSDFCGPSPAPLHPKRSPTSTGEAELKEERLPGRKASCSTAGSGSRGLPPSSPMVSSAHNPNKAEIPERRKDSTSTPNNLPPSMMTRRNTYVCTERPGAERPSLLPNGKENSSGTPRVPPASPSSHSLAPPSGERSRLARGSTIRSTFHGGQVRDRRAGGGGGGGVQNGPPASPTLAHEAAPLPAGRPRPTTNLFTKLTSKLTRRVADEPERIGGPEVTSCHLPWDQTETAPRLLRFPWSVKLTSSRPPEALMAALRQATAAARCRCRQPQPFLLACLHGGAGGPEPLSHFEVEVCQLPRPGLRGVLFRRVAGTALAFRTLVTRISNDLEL

[27] = target: MET (human) (UniProt P08581)
[28] = target: PBK (human) (UniProt Q96KB5)
[29] = target: PIM3 (human) (UniProt Q86V86)
[30] = target: PRKCG (human) (UniProt P05129)
[31] = target: PRKCI (human) (UniProt P41743)
[32] = target: PTK2B (human) (UniProt Q14289)
[33] = target: RAF1 (human) (UniProt P04049)
[34] = target: RET (human) (UniProt P07949)
[35] = target: RPS6KA4 KD2 (human) (UniProt O75676)
[36] = target: RPS6KA5 KD2 (human) (UniProt O75582)
[37] = target: SGK2 (human) (UniProt Q9HBY8)
[38] = target: SGK3 (human) (UniProt Q96BR1)
[39] = target: STK24 (human) (UniProt Q9Y6E0)
[40] = target: STK4 (human) (UniProt Q13043)
[41] = target: TYK2 JH1 catalytic (human) (UniProt P29597)
[42] = target: VRK1 (human) (UniProt Q99986)

Chain of CDK6 CCND3 (human) (P30281 whole entry, looked up): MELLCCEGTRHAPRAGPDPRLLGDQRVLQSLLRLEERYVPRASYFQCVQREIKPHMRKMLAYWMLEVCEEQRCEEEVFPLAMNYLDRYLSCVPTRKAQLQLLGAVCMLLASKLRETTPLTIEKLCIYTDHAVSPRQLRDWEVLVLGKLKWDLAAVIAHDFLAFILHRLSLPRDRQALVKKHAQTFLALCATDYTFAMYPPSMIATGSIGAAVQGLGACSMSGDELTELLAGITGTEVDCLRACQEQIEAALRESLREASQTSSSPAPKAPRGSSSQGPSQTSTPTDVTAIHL
Chain of CDK6 CCND3 (human) (Q00534 whole entry, looked up): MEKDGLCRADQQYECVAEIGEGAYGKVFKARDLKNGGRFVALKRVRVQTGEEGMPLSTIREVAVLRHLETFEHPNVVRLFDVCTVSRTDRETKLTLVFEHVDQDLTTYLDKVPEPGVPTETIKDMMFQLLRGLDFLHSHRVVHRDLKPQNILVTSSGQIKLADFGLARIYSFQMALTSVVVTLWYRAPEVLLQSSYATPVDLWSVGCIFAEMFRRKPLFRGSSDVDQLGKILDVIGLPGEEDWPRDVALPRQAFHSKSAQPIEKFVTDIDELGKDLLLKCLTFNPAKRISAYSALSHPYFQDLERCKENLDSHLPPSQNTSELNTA

`Cn1cc(/C=C2\C(=O)Nc3ccc(S(N)(=O)=O)cc32)c2ccccc21` gave a residual activity [1] of 49.2%, a residual activity [2] of 57.6% and a residual activity [3] of 56.9%. The residual activity [4] was 94%, the residual activity [5] was 81.4% and the residual activity [6] was 65%. It also gave a residual activity [7] of 19.5%, a residual activity [8] of 105% and a residual activity [9] of 66%. For the same molecule, the residual activity [10] was 83.4%, the residual activity [11] was 120% and the residual activity [12] was 20%. For the same molecule, the residual activity [13] was 1.56%, the residual activity [14] was 45.7% and the residual activity [15] was 40.4%. For the same molecule, the residual activity [16] was 86.3%, the residual activity [17] was 47.2% and the residual activity [18] was 93.1%. For the same molecule, the residual activity [19] was 98.4%, the residual activity [20] was 93.8% and the residual activity [21] was 101%. For the same molecule, the residual activity [22] was 105%, the residual activity [23] was 123% and the residual activity [24] was 109%. For the same molecule, the residual activity [25] was 93.8%, the residual activity [26] was 40.6% and the residual activity [27] was 84.2%. The residual activity [28] was 99.6%, the residual activity [29] was 91.6% and the residual activity [30] was 106%. It also gave a residual activity [31] of 99.6%, a residual activity [32] of 43.1% and a residual activity [33] of 102%. It also gave a residual activity [34] of 1.93%, a residual activity [35] of 71.2% and a residual activity [36] of 80.9%. For the same molecule, the residual activity [37] was 80.7%, the residual activity [38] was 94.7% and the residual activity [39] was 80.2%. It also gave a residual activity [40] of 10.7%, a residual activity [41] of 35% and a residual activity [42] of 103%.

In the case of `O=C1NC(=O)c2cc(Nc3ccc(F)cc3)c(Nc3ccc(F)cc3)cc21`, the residual activity [1] was 104%, the residual activity [2] was 103% and the residual activity [3] was 96.1%. It also gave a residual activity [4] of 99%, a residual activity [5] of 89.9% and a residual activity [6] of 95.4%. For the same molecule, the residual activity [7] was 104%, the residual activity [8] was 88% and the residual activity [9] was 104%. For the same molecule, the residual activity [10] was 95.5%, the residual activity [11] was 107% and the residual activity [12] was 96.4%. For the same molecule, the residual activity [13] was 91.5%, the residual activity [14] was 99.4% and the residual activity [15] was 103%. It also gave a residual activity [16] of 101%, a residual activity [17] of 98.7% and a residual activity [18] of 95.1%. The residual activity [19] was 89.2%, the residual activity [20] was 94.6% and the residual activity [21] was 93.6%. The residual activity [22] was 99.4%, the residual activity [23] was 88.3% and the residual activity [24] was 86.1%. The residual activity [25] was 61.4%, the residual activity [26] was 98.2% and the residual activity [27] was 96.7%. For the same molecule, the residual activity [28] was 88.4%, the residual activity [29] was 105% and the residual activity [30] was 102%. For the same molecule, the residual activity [31] was 89%, the residual activity [32] was 111% and the residual activity [33] was 81.9%. For the same molecule, the residual activity [34] was 104%, the residual activity [35] was 102% and the residual activity [36] was 93.6%. It also gave a residual activity [37] of 99.7%, a residual activity [38] of 102% and a residual activity [39] of 93.7%. The residual activity [40] was 101%, the residual activity [41] was 80.6% and the residual activity [42] was 93%.

Work on `N#CCCc1ccc2c(c1)-c1[nH]c3ccc([N+](=O)[O-])cc3c1CC(=O)N2` yielded a residual activity [1] of 95.5%, a residual activity [2] of 69.1% and a residual activity [3] of 24.8%. For the same molecule, the residual activity [4] was 25.9%, the residual activity [5] was 26% and the residual activity [6] was 28.6%. For the same molecule, the residual activity [7] was 45.1%, the residual activity [8] was 95.1% and the residual activity [9] was 92.9%. For the same molecule, the residual activity [10] was 105%, the residual activity [11] was 98.6% and the residual activity [12] was 72.7%. The residual activity [13] was 15.1%, the residual activity [14] was 52.2% and the residual activity [15] was 101%. It also gave a residual activity [16] of 103%, a residual activity [17] of 91.5% and a residual activity [18] of 110%. It also gave a residual activity [19] of 2.71%, a residual activity [20] of 101% and a residual activity [21] of 98.9%. The residual activity [22] was 98.2%, the residual activity [23] was 91.8% and the residual activity [24] was 95.1%. For the same molecule, the residual activity [25] was 97.1%, the residual activity [26] was 62.5% and the residual activity [27] was 119%. It also gave a residual activity [28] of 95.4%, a residual activity [29] of 70.9% and a residual activity [30] of 93.3%. It also gave a residual activity [31] of 65.3%, a residual activity [32] of 62.9% and a residual activity [33] of 104%. The residual activity [34] was 80.8%, the residual activity [35] was 85.8% and the residual activity [36] was 94.2%. For the same molecule, the residual activity [37] was 114%, the residual activity [38] was 99.2% and the residual activity [39] was 57.7%. For the same molecule, the residual activity [40] was 30.9%, the residual activity [41] was 48.1% and the residual activity [42] was 97.5%.

With `FC(F)(F)c1ccc(/C=C/c2nc(COc3ccc(CCCCn4ccnn4)cc3)co2)cc1` the residual activity [1] was 101%, the residual activity [2] was 101% and the residual activity [3] was 92.6%. The residual activity [4] was 119%, the residual activity [5] was 90% and the residual activity [6] was 99.5%. For the same molecule, the residual activity [7] was 108%, the residual activity [8] was 98.4% and the residual activity [9] was 102%. The residual activity [10] was 104%, the residual activity [11] was 102% and the residual activity [12] was 102%. The residual activity [13] was 87.8%, the residual activity [14] was 97% and the residual activity [15] was 102%. For the same molecule, the residual activity [16] was 109%, the residual activity [17] was 104% and the residual activity [18] was 105%. It also gave a residual activity [19] of 100%, a residual activity [20] of 102% and a residual activity [21] of 98.3%. It also gave a residual activity [22] of 99.1%, a residual activity [23] of 103% and a residual activity [24] of 100%. For the same molecule, the residual activity [25] was 106%, the residual activity [26] was 97.9% and the residual activity [27] was 95.1%. For the same molecule, the residual activity [28] was 99.9%, the residual activity [29] was 107% and the residual activity [30] was 95.2%. The residual activity [31] was 92.6%, the residual activity [32] was 103% and the residual activity [33] was 97.1%. It also gave a residual activity [34] of 101%, a residual activity [35] of 105% and a residual activity [36] of 111%. The residual activity [37] was 103%, the residual activity [38] was 89.2% and the residual activity [39] was 101%. The residual activity [40] was 97.5%, the residual activity [41] was 99.1% and the residual activity [42] was 99.8%.
